# Laboratory results published in paper PMC6354023, “A phase I study of the HDM2 antagonist SAR405838 combined with the MEK inhibitor pimasertib in patients with advanced solid tumours” (British Journal of Cancer, 2018).
# Read-outs that look alike come from different tables or passages of the source.
# Tests used:
# [1] = Pharmacokinetics of SAR405838 (whole-blood concentrations) in combination; assay type: in vivo, human; settings: for AUC(0-t) / Cmax / half-life / Tmax: human, whole blood, oral; for AUC(0-t): read-out: SAR405838 AUC0–24, mean ± SD; for Cmax: read-out: SAR405838 Cmax, mean ± SD; for half-life: read-out: SAR405838 t1/2 (converted); for Tmax: read-out: SAR405838 tmax, median (range)
# Description: Blood samples were collected on Days 1 (for pimasertib only), 2, 3, 8 and 15 of Cycle 1, on Days 1 and 2 of Cycle 2, and on Day 1 of Cycles 3 and 4, to determine the whole-blood and plasma concentrations of SAR405838 and pimasertib, respectively.
# [2] = cited from earlier work
# [3] = Safety assessments: adverse events (NCI-CTCAE v4.03), laboratory abnormalities; assay type: in vivo, human; settings: of 26 treated patients, in combination
# Experimental: Safety was assessed by the evaluation of AEs, DLTs, changes in vital signs, ECOG PS, physical examinations,12-lead electrocardiograms, determination of LVEF, ophthalmological examinations and clinical laboratory tests (including haematology, coagulation, blood chemistry and urinalysis).
# MIC-1 = MIC-1 levels in plasma by ELISA; assay type: in vivo, human
# Experimental: MIC-1 protein concentrations were measured in plasma samples using an analytically validated enzyme-linked immunosorbent assay (Quantikine® Human GDF-15 immunoassay). pERK levels were determined by evaluating median value changes in response to ex vivo stimulation with or without phorbol myristate acetate (PMA) over time in whole-blood samples (CD 45^+ and lymphocyte populations) by flow cytometry (BD FACSCanto™ II instrument). Stimulated pERK levels were calculated as percentage (PMA-dimethylsulphoxide [DMSO])/DMSO).
# [4] = DL1 SAR405838 200 mg QD + pimasertib 45 mg BID, C1D2
# [5] = DL1 SAR405838 200 mg QD + pimasertib 45 mg BID, C2D1
# [6] = DL2a SAR405838 200 mg QD + pimasertib 60 mg QD, C1D2
# [7] = DL2a SAR405838 200 mg QD + pimasertib 60 mg QD, C2D1
# [8] = DL2b SAR405838 300 mg QD + pimasertib 45 mg BID, C1D2
# [9] = DL2b SAR405838 300 mg QD + pimasertib 45 mg BID, C2D1
# [10] = DL3a SAR405838 300 mg QD + pimasertib 60 mg QD, C1D2
# [11] = DL3a SAR405838 300 mg QD + pimasertib 60 mg QD, C2D1
smiles,measurement,setting,value
CC(C)(C)C[C@@H]1N[C@@H](C(=O)N[C@H]2CC[C@H](O)CC2)[C@H](c2cccc(Cl)c2F)[C@]12C(=O)Nc1cc(Cl)ccc12 [SAR405838],PK in combination compared with PK as monotherapy,[1]; SAR405838 and pimasertib administered in combination,similar
same,Exposure change with dose increase (50%),[1]; between DL1/DL2a (SAR405838 200 mg) and DL2b/DL3a (SAR405838 300 mg),did not result in SAR405838 exposure increase
same,AUC(0-t),[1]; [4],19300 ng·h/mL
same,Cmax,[1]; [4],1570 ± 876 ng/mL
same,half-life,[1]; [4],16.1 ± 7.75 h
same,Tmax,[1]; [4],2 h
same,AUC(0-t),[1]; [5],14600 ng·h/mL
same,Cmax,[1]; [5],1250 ± 668 ng/mL
same,half-life,[1]; [5],10.8 h
same,Tmax,[1]; [5],1.8 h
same,AUC(0-t),[1]; [6],20800 ng·h/mL
same,Cmax,[1]; [6],1500 ± 634 ng/mL
same,half-life,[1]; [6],8.86 h
same,Tmax,[1]; [6],2 h
same,AUC(0-t),[1]; [7],15600 ng·h/mL
same,Cmax,[1]; [7],1050 ± 581 ng/mL
same,half-life,[1]; [7],10 h
same,Tmax,[1]; [7],2.8 h
same,AUC(0-t),[1]; [8],16300 ng·h/mL
same,Cmax,[1]; [8],1100 ± 547 ng/mL
same,half-life,[1]; [8],15.5 ± 4.33 h
same,Tmax,[1]; [8],3 h
same,AUC(0-t),[1]; [9],15000 ng·h/mL
same,Cmax,[1]; [9],1100 ± 361 ng/mL
same,half-life,[1]; [9],13.4 ± 2.38 h
same,Tmax,[1]; [9],1.5 h
same,AUC(0-t),[1]; [10],21400 ng·h/mL
same,Cmax,[1]; [10],1490 ± 939 ng/mL
same,half-life,[1]; [10],13.3 ± 4.94 h
same,Tmax,[1]; [10],4 h
same,AUC(0-t),[1]; [11],21200 ng·h/mL
same,Cmax,[1]; [11],1440 ± 583 ng/mL
same,half-life,[1]; [11],14.9 ± 11.1 h
same,Tmax,[1]; [11],2 h
same,"Main dose-limiting toxicity, monotherapy",[2],thrombocytopenia
same,"MTD and recommended phase II dose, monotherapy",[2]; once daily (QD),300 mg
same,"Patients with dose modification, reduction or omission",[3],17 patients
same,Time of peak MIC-1 elevation,MIC-1; C1D2 and C2D1,6 h
same,Greatest increase in MIC-1 in the DL1 cohort,MIC-1; patient with confirmed PR (endometrial tumour),8.8 fold
same,"MIC-1 elevation, mean vs baseline","MIC-1; plasma, all patients at C1D2 and C2D1",3.5+ /− 0.8 fold
